Measurements published in BindingDB's records for doi:10.1021/acs.jmedchem.7b01525 (University of Montreal, 2017).

Tests used:
Urotensin-2 receptor [1] = molecular target: T1, Urotensin-2 receptor (Rattus norvegicus, UniProt P49684); assay: Allosteric modulation of urotensin-2 receptor in Sprague-Dawley rat thoracic aorta assessed as change in human urotensin-2-mediated aortic ring contraction by measuring urotensin-2 pEC50 at 10^-5M preincubated for 15 mins followed by urotensin-2 addition (Rvb = 8.61 +/- 0.05 No_unit)
T1 sequence (P49684 whole entry): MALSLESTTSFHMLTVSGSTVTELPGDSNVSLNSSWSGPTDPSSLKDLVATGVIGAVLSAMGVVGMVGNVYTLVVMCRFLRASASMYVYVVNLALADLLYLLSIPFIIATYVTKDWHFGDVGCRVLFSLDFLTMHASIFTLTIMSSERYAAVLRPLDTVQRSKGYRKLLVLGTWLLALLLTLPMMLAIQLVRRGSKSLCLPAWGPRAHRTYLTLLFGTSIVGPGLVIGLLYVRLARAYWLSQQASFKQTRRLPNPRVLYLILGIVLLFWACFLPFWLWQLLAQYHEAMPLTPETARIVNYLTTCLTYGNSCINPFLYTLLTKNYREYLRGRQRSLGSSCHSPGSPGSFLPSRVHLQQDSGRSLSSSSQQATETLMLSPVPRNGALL

Urotensin-2 receptor [2] = molecular target: T1, Urotensin-2 receptor; assay: Allosteric modulation of urotensin-2 receptor in Sprague-Dawley rat thoracic aorta assessed as change in URP-mediated aortic ring contraction by measuring URP pEC50 at 10^-5M preincubated for 15 mins followed by URP addition (Rvb = 8.09 +/- 0.03 No_unit)
Urotensin-2 receptor [3] = molecular target: T2, Urotensin-2 receptor (Homo sapiens, UniProt Q9UKP6); assay: Allosteric modulation of human urotensin-2 receptor expressed in HEK293 cells assessed as change in URP-induced G12 activation by measuring URP pEC50 at 10^-5 M preincubated for 30 mins followed by URP addition by BRET assay (Rvb = 6.75 +/- 0.19 No_unit)
T2 sequence (Q9UKP6 whole entry): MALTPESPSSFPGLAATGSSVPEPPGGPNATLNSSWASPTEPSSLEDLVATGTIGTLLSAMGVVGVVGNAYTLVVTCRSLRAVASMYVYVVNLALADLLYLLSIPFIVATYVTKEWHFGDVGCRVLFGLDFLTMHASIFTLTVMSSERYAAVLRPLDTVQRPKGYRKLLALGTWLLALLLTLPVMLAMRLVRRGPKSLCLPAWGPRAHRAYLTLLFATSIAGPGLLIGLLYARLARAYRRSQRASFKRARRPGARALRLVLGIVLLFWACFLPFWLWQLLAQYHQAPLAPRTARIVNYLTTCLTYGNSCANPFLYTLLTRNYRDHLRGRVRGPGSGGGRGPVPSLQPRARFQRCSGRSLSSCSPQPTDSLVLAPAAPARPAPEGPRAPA

Urotensin-2 receptor [4] = molecular target: T2, Urotensin-2 receptor; assay: Allosteric modulation of human urotensin-2 receptor expressed in HEK293 cells assessed as change in human urotensin-2-induced Gq activation by measuring urotensin-2 pEC50 at 10^-5 M preincubated for 30 mins followed by urotensin-2 addition by BRET assay (Rvb = 7.88 +/- 0.07 No_unit)
Urotensin-2 receptor [5] = molecular target: T2, Urotensin-2 receptor; assay: Allosteric modulation of human urotensin-2 receptor expressed in HEK293 cells assessed as change in URP-induced Gq activation by measuring URP pEC50 at 10^-5 M preincubated for 30 mins followed by URP addition by BRET assay (Rvb = 8.28 +/- 0.08 No_unit)
Urotensin-2 receptor [6] = molecular target: T2, Urotensin-2 receptor; assay: Allosteric modulation of human urotensin-2 receptor expressed in HEK293 cells assessed as change in human urotensin-2-induced G12 activation by measuring urotensin-2 pEC50 at 10^-5 M preincubated for 30 mins followed by urotensin-2 addition by BRET assay (Rvb = 6.31 +/- 0.17 No_unit)
[7] = Allosteric modulation of urotensin-2 receptor in Sprague-Dawley rat thoracic aorta assessed as change in URP-mediated aortic ring contraction by measuring URP pEC50 at 1 uM preincubated for 15 mins followed by URP addition (Rvb = 8.09 +/- 0.03 No_unit)
[8] = Allosteric modulation of urotensin-2 receptor in Sprague-Dawley rat thoracic aorta assessed as change in human urotensin-2-mediated aortic ring contraction by measuring urotensin-2 pEC50 at 1 uM preincubated for 15 mins followed by urotensin-2 addition (Rvb = 8.61 +/- 0.05 No_unit)

SMILES | EC50 (Urotensin-2 receptor [1]) [nM] | EC50 (Urotensin-2 receptor [2]) [nM] | also measured
COc1ccc(C=CC2=NN(CCCCN)C(=O)N(Cc3ccc4ccccc4c3)c3ccccc32)cc1 | 3.6 | 8.5 | 
COc1ccc(C=CC2=NN(CCCCN)C(=O)N(Cc3ccc(-c4ccccc4)cc3)c3ccccc32)cc1 |  | 6.3 | EC50 (Urotensin-2 receptor [3]): 1740 nM; EC50 (Urotensin-2 receptor [4]): 8.5 nM; EC50 (Urotensin-2 receptor [5]): 7.1 nM; EC50 (Urotensin-2 receptor [6]): 2240 nM
NCCCCN1N=C(C=Cc2ccc(O)cc2)c2ccccc2N(Cc2ccc3ccccc3c2)C1=O | 15 |  | 
NCCCCN1N=C(C=Cc2ccc(O)cc2)c2ccccc2N(Cc2ccc(-c3ccccc3)cc2)C1=O |  | 9.3 | EC50 (Urotensin-2 receptor [3]): 117 nM; EC50 (Urotensin-2 receptor [4]): 14 nM; EC50 (Urotensin-2 receptor [5]): 4.2 nM; EC50 (Urotensin-2 receptor [6]): 2190 nM
COc1ccc(CCC2=NN(CCCN)C(=O)N(Cc3ccc(-c4ccccc4)cc3)c3ccccc32)cc1 | 3.2 | 7.8 | 
COc1ccc(CCC2=NN(CCCCN)C(=O)N(Cc3ccc4ccccc4c3)c3ccccc32)cc1 | 5 | 4 | 
COc1ccc(CCC2=NN(CCCCN)C(=O)N(Cc3ccc(-c4ccccc4)cc3)c3ccccc32)cc1 | 3.7 | 5 | 
NCCCN1N=C(CCc2ccc(O)cc2)c2ccccc2N(Cc2ccc3ccccc3c2)C1=O | 3.7 | 10 | 
NCCCCN1N=C(CCc2ccc(O)cc2)c2ccccc2N(Cc2ccc3ccccc3c2)C1=O | 4.4 | 10 | EC50 (Urotensin-2 receptor [3]): 1100 nM; EC50 (Urotensin-2 receptor [4]): 11 nM; EC50 (Urotensin-2 receptor [5]): 5 nM; EC50 (Urotensin-2 receptor [6]): 1180 nM
NCCCCN1N=C(CCc2ccc(O)cc2)c2ccccc2N(Cc2ccc(-c3ccccc3)cc2)C1=O | 3.5 | 20 | 
NCCCN1N=C(CCc2nc3ccccc3s2)c2ccccc2N(Cc2ccc(-c3ccccc3)cc2)C1=O | 1.4 | 3.7 | 
NCCCCN1N=C(CCc2nc3ccccc3s2)c2ccccc2N(Cc2ccc(-c3ccccc3)cc2)C1=O | 12 | 3.7 | 
CNCCCCN1N=C(CCc2nc3ccccc3s2)c2ccccc2N(Cc2ccc(-c3ccccc3)cc2)C1=O | 6 | 15 | 
NCCCN1N=C(CCc2nc3ccccc3s2)c2ccccc2N(Cc2ccc3ccccc3c2)C1=O | 3.3 | 4 | EC50 (Urotensin-2 receptor [3]): 1950 nM; EC50 (Urotensin-2 receptor [4]): 11 nM; EC50 (Urotensin-2 receptor [5]): 6.2 nM; EC50 (Urotensin-2 receptor [6]): 3720 nM
CNCCCCN1N=C(CCc2nc3ccccc3s2)c2ccccc2N(Cc2ccc3ccccc3c2)C1=O | 4.3 | 4.3 | 
CNCCCCN1N=C(CCc2nc3ccccc3s2)c2ccccc2N(Cc2cccc3ccccc23)C1=O | 4.1 | 6.6 | 
NCCCCN1N=C(CCc2nc3ccccc3s2)c2ccccc2N(Cc2ccc3ccccc3c2)C1=O | 3 | 3.5 | 
COc1ccc(CCC2=NN(CCCN)C(=O)N(Cc3ccc4ccccc4c3)c3ccccc32)cc1 | 4 | 6.3 | 
NCCCN1N=C(CCc2ccc(O)cc2)c2ccccc2N(Cc2ccc(-c3ccccc3)cc2)C1=O | 4.5 | 11 | 
CNCCCN1N=C(CCc2nc3ccccc3s2)c2ccccc2N(Cc2ccc(-c3ccccc3)cc2)C1=O | 4.1 | 4.9 | 
NCCCN1N=C(CCc2nc3ccccc3s2)c2ccccc2N(Cc2cccc3ccccc23)C1=O | 4.8 | 5.8 | 
CC(C)[C@H](NC(=O)[C@@H]1CSSC[C@H](NC(=O)[C@H](C)N)C(=O)N[C@@H](Cc2ccccc2)C(=O)N[C@@H](Cc2ccc(-c3ccccc3)cc2)C(=O)N[C@@H](CCCCN)C(=O)N[C@@H](Cc2ccc(O)cc2)C(=O)N1)C(=O)O |  |  | EC50 [7]: 18 nM; EC50 [8]: 25 nM
NCCCN1N=C(C=Cc2ccc(O)cc2)c2ccccc2N(Cc2ccc3ccccc3c2)C1=O | 12 | 20 | 
